The results in this text go back to Sander's compilation of Henry's law constants (doi:10.1136/oem.51.1.68).

A short description of the data set: Henry solubility constant Hcp at 310 K (mol/(m3 Pa)). As to conditions: reference: Kaneko et al. (1994).
Consider `CCCCOC(C)=O` [butyl ethanoate], for which the “Henry solubility constant Hcp at 310 K” value worked out at 0.013.

On to `CC(=O)OCCC(C)C` [3-methylbutyl ethanoate], for which the “Henry solubility constant Hcp at 310 K” value came out at 0.0088.

With `CC(=O)OC(C)C` [2-propyl ethanoate], the “Henry solubility constant Hcp at 310 K” value is 0.013.

Regarding `CCO` [ethanol], the “Henry solubility constant Hcp at 310 K” value turned out to be 0.83.

On to `CCCOC(C)=O` [propyl ethanoate], for which the “Henry solubility constant Hcp at 310 K” value turned out to be 0.021.

`COC(C)=O` [methyl ethanoate]: the “Henry solubility constant Hcp at 310 K” value was determined as 0.042.

`CC(C)CO` [2-methyl-1-propanol]: the “Henry solubility constant Hcp at 310 K” value amounted to 0.44.

Turning to `CCCCCO` [1-pentanol], the “Henry solubility constant Hcp at 310 K” value stood at 0.42.

On to `CCCO` [1-propanol], for which the “Henry solubility constant Hcp at 310 K” value came to 0.72.

For the compound `CC(=O)OCC(C)C` [2-methylpropyl ethanoate], the “Henry solubility constant Hcp at 310 K” value amounted to 0.01.

Turning to `CCCCCOC(C)=O` [pentyl ethanoate], the “Henry solubility constant Hcp at 310 K” value came out at 0.0093.

For `CCC(C)CO` (centres undefined) [2-methyl-1-butanol], the “Henry solubility constant Hcp at 310 K” value is 0.33.

Turning to `CCOC(C)=O` [ethyl ethanoate], the “Henry solubility constant Hcp at 310 K” value was found to be 0.028.

On to `CC(C)O` [2-propanol], for which the “Henry solubility constant Hcp at 310 K” value was determined as 0.58.
